How the values were obtained:
[1] = system: HIV-1 strains resistant to INSTIs, NRTIs, NNRTIs or PIs; format: cell-based
Procedure, shortened: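 Cell viability (CellTiter-Glo luminescence) served as read-out in MT4 cells at 10^6/mL, infected 2 h at MOI 0.001 in presence of graded compound concentrations. Viruses: resistance-mutation recombinants in NL4-3 backbone plus resistant clinical isolates.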

NL4-3 HIV-1 clone = assay: Combination antiviral activity assay (MacSynergy II) in NL4-3-infected MT4 cells; format: cell-based
Source text: To this end, we evaluated the activity of BDM-2 in the presence of approved antiretroviral drugs against NL4-3 HIV-1 clone replicating on MT4 cells. Examples of MacSynergy plots obtained for the combinations of BDM-2 with the protease inhibitor lopinavir (LPV) or the INSTI EVG are shown in Fig. 3A and B, respectively. The results indicated no antagonism of ascending concentrations of BDM-2 with the antiviral activity of LPV or EVG and vice versa. Next, we extended these analyses to a panel of 16 FDA-approved antiretroviral drugs, including 3 protease inhibitors, 6 NRTIs, 4 NNRTIs, and 3 INSTIs.
BDM-2, as lead compound representative of the series, was used in these experiments. Combination studies were performed in MT4 cells infected with NL4-3, as previously described ([3]). Multiple concentrations of BDM-2 were tested in checkerboard pattern in the presence and absence of dilutions of 16 representative approved anti-HIV drugs of different classes. Compound combinations were analyzed by calculations to quantify deviation from additivity at the 50% level. Data were analyzed as described by Prichard and Shipman by using the MacSynergy II program ([54]). Synergy volumes in the range of −25 to +25 define additivity; −50 minor antagonism, +50 minor synergy, and up to 100 and >100 moderate and strong synergy, respectively. Combinations of RBV with AZT or ddI were used as controls for antagonism and synergy, respectively.

[2] = INSTI-resistant, NL4-3 background
[3] = INSTI-resistant, primary patient-derived strain

Cc1ccc(C2CC2)c(-c2ccc3c(c2)CCCO3)c1[C@H](OC(C)(C)C)C(=O)O [BDM-2]
Fold change in EC50 relative to NL4-3, E92Q [1, 2]: 1
Fold change in EC50 relative to NL4-3, G140S [1, 2]: 1
Fold change in EC50 relative to NL4-3, G140S/Q148H [1, 2]: 1
Fold change in EC50 relative to NL4-3, N155H [1, 2]: 1
Fold change in EC50 relative to NL4-3, Q148H [1, 2]: 1
Fold change in EC50 relative to NL4-3, Y143R [1, 2]: 1
Fold change in EC50 relative to NL4-3, E92Q/N155H (pat.) [1, 3]: 1
Fold change in EC50 relative to NL4-3, G140S/Q148H (pat.) [1, 3]: 1
Fold change in EC50 relative to NL4-3, T97A/N155H (pat.) [1, 3]: 1
Fold change in EC50 relative to NL4-3, NLAY351717 ([1]; NRTI-resistant clone): 2
Fold change in EC50 relative to NL4-3, NLAY351753 ([1]; NRTI/NNRTI-resistant clone): 1
Fold change in EC50 relative to NL4-3, K103N/Y181C ([1]; NRTI/NNRTIs group, NL4-3 background): 1
Fold change in EC50 relative to NL4-3, ARP-4595 ([1]; PI-resistant virus): 1
Fold change in EC50 relative to NL4-3, ARP-4596 ([1]; PI-resistant virus): 0.5
Fold change in EC50 relative to NL4-3, ARP-11801 ([1]; PI-resistant virus): 1
Fold change in EC50 relative to NL4-3, ARP-11803 ([1]; PI-resistant virus): 1
Fold change in EC50 relative to NL4-3, ARP-11807 ([1]; PI-resistant virus): 1
Fold change in EC50 relative to NL4-3, ARP-11808 ([1]; PI-resistant virus): 1
interaction with a panel of 16 FDA-approved antiretroviral drugs (NL4-3 HIV-1 clone; 3 protease inhibitors, 6 NRTIs, 4 NNRTIs, 3 INSTIs, MacSynergy): no antagonism
interaction with lopinavir (LPV) (NL4-3 HIV-1 clone; MacSynergy synergy volume): strong synergy (up to 100 and >100 moderate and strong synergy, respectively)
interaction with some of the remaining drugs, including the INSTIs (NL4-3 HIV-1 clone; MacSynergy synergy volume): moderate synergy (up to 100 and >100 moderate and strong synergy, respectively)
